Results on 1 compound are retold here after paper PMC5608352, “Formyl peptide derived lipopeptides disclose differences between the receptors in mouse and men and call the pepducin concept in question” (PLoS ONE, 2017).

Assay type in all cases: cell-based
For one assay, the system named is human neutrophils. The assay can be described thus: Direct activation: superoxide release (isoluminol/HRP chemiluminescence), human neutrophils. The settings on record: 10^5 cells, 37°C, isoluminol/HRP CL, pepducin 1 μM. The text has this:
(§1) Human peripheral blood neutrophils were isolated from buffy coats from healthy blood donors using dextran sedimentation and Ficoll-Paque gradient centrifugation as described. The remaining erythrocytes were disrupted by hypotonic lysis and the neutrophils were washed twice, suspended in KRG and, stored on melting ice until use. This isolation process permits cells to be purified with minimal granule mobilization. The buffy coats were obtained from the blood bank at Sahlgrenska University Hospital. Ethics approval was not needed since the buffy coats were provided anonymously and could not be traced back to a specific individual. This is in line with Swedish legislation section code 4§ 3p SFS 2003:460 (Lag om etikprövning av forskning som avser människor).
(§2) NADPH-oxidase activity was determined using an isoluminol and HRP-enhanced chemiluminescence (CL) system that allow for the determination of superoxide production. The CL activity was measured in a six-channel Biolumat LB 9505 apparatus (Berthold Co., Wildbad, Germany), using disposable 4-mL polypropylene tubes with 1 mL reaction mixture. […] The light emission was recorded continuously over time and presented as superoxide production (in arbitrary light units, cpm x10^-6) as a function of time (min). The activity before stimulus addition was recorded as basal line and this activity was not changed in vehicle control samples. […]

Assay [1] has as its target T1, Fpr2 (Mus musculus, UniProt O88536).
T1 construct: WT mouse neutrophils (5 x 10^4 cells) were pre-incubated without (solid line) or with mF2Pal16; endogenous in cells; host or cells: bone marrow neutrophils of C57BL/6 wild-type mice, TNF-alpha primed
T1 sequence (O88536 1-351): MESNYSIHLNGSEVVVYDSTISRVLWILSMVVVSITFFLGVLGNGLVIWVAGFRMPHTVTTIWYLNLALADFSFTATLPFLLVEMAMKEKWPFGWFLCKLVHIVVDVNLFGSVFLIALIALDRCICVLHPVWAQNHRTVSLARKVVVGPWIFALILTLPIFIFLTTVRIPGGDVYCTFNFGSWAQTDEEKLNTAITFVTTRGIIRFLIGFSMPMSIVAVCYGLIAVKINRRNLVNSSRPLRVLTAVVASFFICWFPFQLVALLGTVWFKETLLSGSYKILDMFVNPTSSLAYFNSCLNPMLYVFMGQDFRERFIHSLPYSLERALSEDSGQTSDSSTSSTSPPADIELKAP
Description: Inhibition of F1Pal16-induced superoxide release, WT mouse neutrophils. The settings on record: mF2Pal16 250 nM, 5 min pre-incubation, F1Pal16 500 nM, one of three experiments. An excerpt: Mice (8–12 weeks of age) were killed by cervical dislocation, the femurs and tibias were removed and freed of soft tissue attachments, and the extreme distal tip of each extremity was cut off. KRG without Ca^2+ and Mg^2+ (KRG-) was forced through the bone by using a 1-mL syringe with a 27-gauge needle. After dispersing cell clumps and removing the debris, the bone marrow granulocytes were isolated according to an earlier described procedure with some modifications. Briefly, a cell suspension in 2 mL of KRG- was laid on top of a three-layer Percoll gradient (1.095, 1.085, and 1.070 g/mL). The density of each Percoll solution was verified using density marker beads. […] The cell number and population of bone marrow cells were determined by flow cytometry based on forward scatter (size) and side scatter (density) localization.
NADPH-oxidase activity was determined using an isoluminol and HRP-enhanced chemiluminescence (CL) system that allow for the determination of superoxide production. The CL activity was measured in a six-channel Biolumat LB 9505 apparatus (Berthold Co., Wildbad, Germany), using disposable 4-mL polypropylene tubes with 1 mL reaction mixture. […] The light emission was recorded continuously over time and presented as superoxide production (in arbitrary light units, cpm x10^-6) as a function of time (min). […]

Another assay deals with T2, mouse neutrophils (Mus musculus, UniProt O88536).
T2 sequence (O88536 1-351): T1 sequence (O88536 1-351)
Description: Direct activation: superoxide release (isoluminol/HRP chemiluminescence), WT mouse bone marrow neutrophils. The settings on record: WT mouse (C57BL/6) bone marrow neutrophils, TNF-α primed, 5 x 10^4 cells, 37°C, isoluminol/HRP CL, peak activity; pepducin 1 μM in figures. The text has this: Mice (8–12 weeks of age) were killed by cervical dislocation, the femurs and tibias were removed and freed of soft tissue attachments, and the extreme distal tip of each extremity was cut off. KRG without Ca^2+ and Mg^2+ (KRG-) was forced through the bone by using a 1-mL syringe with a 27-gauge needle. After dispersing cell clumps and removing the debris, the bone marrow granulocytes were isolated according to an earlier described procedure with some modifications. Briefly, a cell suspension in 2 mL of KRG- was laid on top of a three-layer Percoll gradient (1.095, 1.085, and 1.070 g/mL). The density of each Percoll solution was verified using density marker beads. After centrifugation at 500 × g for 30 min at 4°C in a swinging bucket rotor, the lowest band (1.085/1.095 g/mL interface) was collected as the neutrophil fraction. After washing with KRG-, remaining red blood cells were eliminated by hypotonic lysis. After a final wash with KRG-, the cells were resuspended in KRG. The cell number and population of bone marrow cells were determined by flow cytometry based on forward scatter (size) and side scatter (density) localization.
NADPH-oxidase activity was determined using an isoluminol and HRP-enhanced chemiluminescence (CL) system that allow for the determination of superoxide production. The CL activity was measured in a six-channel Biolumat LB 9505 apparatus (Berthold Co., Wildbad, Germany), using disposable 4-mL polypropylene tubes with 1 mL reaction mixture. The tubes contained 4 U HRP and 10 μg/mL isoluminol together with the cells that were equilibrated in the Biolumat for 5 min at 37°C, after which the stimulus solution (100 μL) was added. The light emission was recorded continuously over time and presented as superoxide production (in arbitrary light units, cpm x10^-6) as a function of time (min). The activity before stimulus addition was recorded as basal line and this activity was not changed in vehicle control samples. Since the FPR/Fpr-mediated superoxide production with respect to the onset and decline are very similar, the peak activities were used to compare the responses induced.
Naïve bone marrow cells produce very low levels of superoxide upon stimulation and to increase this production the cells were routinely primed for one hour at RT followed by TNF-α (10 ng/mL, final concentration) priming for a period of 20 min at 37°C [10]. The cells were then kept on ice until further analysis, as described above. The reason for choosing the chemiluminescence based NADPH-oxidase assay system was that very few cells are required, allowing us to monitor and quantify receptor-mediated events with the limited number of mouse bone marrow neutrophils available.
Data analysis was performed using Graph Pad Prism 7.0. The EC50/IC50 values were determined from experiments in which the activities were normalized to the response induced by maximal response or induced by agonist in the absence of inhibitor. The statistical analysis was performed on raw data using Student’s t-test when two groups were compared or one-way ANOVA with Dunnett’s multiple comparisons test in comparison to the control response when three groups were compared. * p ≤ 0.05 was considered significant.

Assay [2] deals with FPR2. The assay can be described thus: Receptor preference in human neutrophils (FPR2 versus FPR1). Conditions: conclusion from superoxide release experiments.
Text: as §1, §2

Entries after “also recorded” stand apart in the source; their conditions may differ. Residues, ends and D or L forms follow the SMILES beside them. *: point of attachment. Palmitoyl = CCCCCCCCCCCCCCCC(=O)*

In the case of `CCCCCCCCCCCCCCCC(=O)N[C@@H](CCCCN)C(=O)N[C@H](C(=O)N[C@@H](CC(N)=O)C(=O)N[C@@H](CCCNC(=N)N)C(=O)N[C@@H](CCCNC(=N)N)C(=O)N[C@@H](CC(N)=O)C(=O)N[C@@H](CC(C)C)C(=O)N[C@H](C(=O)N[C@@H](CC(N)=O)C(=O)N[C@@H](CO)C(=O)N[C@@H](CO)C(=O)N[C@@H](CCCNC(=N)N)C(=O)N1CCC[C@H]1C(=O)N[C@@H](CC(C)C)C(=O)N[C@@H](CCCNC(=N)N)C(=O)N[C@H](C(=O)O)C(C)C)C(C)C)[C@@H](C)CC` [mF2Pal16] (Palmitoyl-KINRRNLVNSSRPLRV-OH; C-terminus assumed), the “superoxide release / activation of human neutrophils” value with human neutrophils was “did not activate human neutrophils to produce superoxide”. For the same compound, the “effect of mF2Pal16 on F1Pal16 response, WT mouse neutrophils” value at Fpr2 [1] is “inhibits the activity of F1Pal16 in mouse neutrophils”; on Fpr2 [1] (listed as mF2pal16) it was “the response was sensitive to the pepducin inhibitor mF2pal16”. Further, the “superoxide release / activation of WT mouse neutrophils” value on mouse neutrophils was “No activation of mouse neutrophils”. Besides, in the assay on FPR2 [2], the “receptor preference / modulation of FPR2 (versus FPR1) in human neutrophils” value was “potent and selective inhibitor for Fpr2/FPR2; also recorded: inhibits the activity of FPR2 in human neutrophils”.
